From the NIST ThermoML archive (doi:10.1021/je900596d)

Settings: Liquid; for mass density: Vibrating tube method; for vapor or sublimation pressure: Closed cell (Static) method

FC(F)=C(F)C(F)(F)F [hexafluoropropene]
Settings	mass density [kg/m3]
263.49 K, 9976.6 kPa	1506.02
283.17 K, 467.7 kPa	1382.09
283.17 K, 472.9 kPa	1382.09
283.17 K, 473.5 kPa	1382.21
283.17 K, 478.6 kPa	1382.26
283.17 K, 483 kPa	1382.29
283.17 K, 491.9 kPa	1382.32
283.17 K, 493.1 kPa	1382.39
283.17 K, 504.9 kPa	1382.43
283.17 K, 526.8 kPa	1382.57
283.17 K, 533.6 kPa	1382.61
283.17 K, 540.4 kPa	1382.7
283.17 K, 548.7 kPa	1382.78
283.17 K, 574 kPa	1382.98
283.17 K, 583 kPa	1382.99
283.17 K, 602 kPa	1383.21
283.17 K, 637 kPa	1383.38
283.17 K, 662.9 kPa	1383.6
283.17 K, 691.4 kPa	1383.74
283.17 K, 716 kPa	1383.92
283.17 K, 731.4 kPa	1384.12
283.17 K, 751.9 kPa	1384.27
283.17 K, 766.8 kPa	1384.29
283.17 K, 790.1 kPa	1384.57
283.17 K, 833.3 kPa	1384.9
283.17 K, 856.3 kPa	1384.98
283.17 K, 882.3 kPa	1385.18
283.17 K, 902.7 kPa	1385.3
283.17 K, 924.8 kPa	1385.58
283.17 K, 945.6 kPa	1385.66
283.17 K, 965.5 kPa	1385.81
283.17 K, 988.4 kPa	1386.02
283.17 K, 1017 kPa	1386.11
283.17 K, 1047.4 kPa	1386.36
283.17 K, 1072.3 kPa	1386.5
283.17 K, 1098.6 kPa	1386.88
283.17 K, 1125.8 kPa	1386.96
283.17 K, 1165.1 kPa	1387.2
283.17 K, 1199.3 kPa	1387.58
283.17 K, 1251 kPa	1387.98
283.17 K, 1286 kPa	1388.12
283.17 K, 1320.8 kPa	1388.36
283.17 K, 1354.8 kPa	1388.62
283.17 K, 1394.7 kPa	1388.89
283.17 K, 1427.8 kPa	1389.18
283.17 K, 1463.5 kPa	1389.43
283.17 K, 1507.4 kPa	1389.74
283.17 K, 1549.2 kPa	1389.92
283.17 K, 1591 kPa	1390.31
283.17 K, 1634.6 kPa	1390.61
283.17 K, 1720.9 kPa	1391.22
283.17 K, 1765.5 kPa	1391.52
283.17 K, 1806 kPa	1391.83
283.17 K, 1849 kPa	1391.99
283.17 K, 1895 kPa	1392.44
283.17 K, 1935.4 kPa	1392.64
283.17 K, 1975.7 kPa	1392.98
283.17 K, 2022.9 kPa	1393.24
283.17 K, 2076.3 kPa	1393.62
283.17 K, 2128.3 kPa	1394
283.17 K, 2174.7 kPa	1394.46
283.17 K, 2219 kPa	1394.73
283.17 K, 2306.2 kPa	1395.23
283.17 K, 2350.5 kPa	1395.59
283.17 K, 2406.1 kPa	1396.02
283.17 K, 2455.4 kPa	1396.26
283.17 K, 2506.6 kPa	1396.64
283.17 K, 2551.5 kPa	1396.81
283.17 K, 2593.9 kPa	1397.25
283.17 K, 2644 kPa	1397.48
283.17 K, 2684 kPa	1397.73
283.17 K, 2734.9 kPa	1398.07
283.17 K, 2785.7 kPa	1398.39
283.17 K, 2848.1 kPa	1398.74
283.17 K, 2900.4 kPa	1399.13
283.17 K, 2951 kPa	1399.5
283.17 K, 3020.7 kPa	1400.01
283.17 K, 3136.8 kPa	1400.76
283.17 K, 3180.2 kPa	1400.96
283.17 K, 3236.8 kPa	1401.44
283.17 K, 3291.9 kPa	1401.74
283.17 K, 3350 kPa	1402.05
283.17 K, 3394.2 kPa	1402.39
283.17 K, 3434.9 kPa	1402.61
283.17 K, 3476.3 kPa	1403.01
283.17 K, 3535.7 kPa	1403.26
283.17 K, 3591.4 kPa	1403.66
283.17 K, 3653.3 kPa	1403.98
283.17 K, 3709.6 kPa	1404.3
283.17 K, 3821.9 kPa	1405.06
283.17 K, 3864.3 kPa	1405.48
283.17 K, 3907.8 kPa	1405.66
283.17 K, 3949 kPa	1405.94
283.17 K, 4020.4 kPa	1406.43
283.17 K, 4078.5 kPa	1406.71
283.17 K, 4127.6 kPa	1407.05
283.17 K, 4182.4 kPa	1407.4
283.17 K, 4239.6 kPa	1407.72
283.17 K, 4293.4 kPa	1408.17
283.17 K, 4409.9 kPa	1408.82
283.17 K, 4465.6 kPa	1409.18
283.17 K, 4516.2 kPa	1409.47
283.17 K, 4620.4 kPa	1410.09
283.17 K, 4676.1 kPa	1410.42
283.17 K, 4728.4 kPa	1410.73
283.17 K, 4783.7 kPa	1411.1
283.17 K, 4835.3 kPa	1411.33
283.17 K, 4889.5 kPa	1411.65
283.17 K, 4943.6 kPa	1412.08
283.17 K, 4996 kPa	1412.33
283.17 K, 5057.6 kPa	1412.68
283.17 K, 5126.3 kPa	1413.1
283.17 K, 5167.5 kPa	1413.34
283.17 K, 5237.5 kPa	1413.76
283.17 K, 5303.9 kPa	1414.14
283.17 K, 5372.7 kPa	1414.61
283.17 K, 5504.1 kPa	1415.44
283.17 K, 5572.6 kPa	1415.73
283.17 K, 5644.7 kPa	1416.12
283.17 K, 5720.2 kPa	1416.66
283.17 K, 5786.5 kPa	1416.98
283.17 K, 5855.5 kPa	1417.42
283.17 K, 5920.9 kPa	1417.74
283.17 K, 5997.2 kPa	1418.2
283.17 K, 6065.1 kPa	1418.58
283.17 K, 6130.5 kPa	1419
283.17 K, 6196 kPa	1419.33
283.17 K, 6260.9 kPa	1419.73
283.17 K, 6326.3 kPa	1420.11
283.17 K, 6398.7 kPa	1420.44

Settings	vapor or sublimation pressure [kPa]
268.24 K	272
273.24 K	326.8
278.21 K	389
278.22 K	388.6
